Reference: EP4782434A1, “N-SULFONYL CARBOXAMIDE COMPOUND, AND PREPARATION METHOD THEREFOR AND USE THEREOF” (Nutshell Therapeutics (Shanghai) Co., Ltd., priority 2023, dated 2025)

Assay: Pharmacokinetic study in rats
Assay type: in vivo
Settings: rat, plasma; male Wistar-Han rats, dose 30 mg/kg; route not stated in the table (oral gavage vehicle given)
Experimental: • 1. Experimental objective: To test the pharmacokinetics of the compounds in in vivo experiments using Wistar-Han rats. • 2. Experimental instruments and materials:
Animal: Wistar-Han rats (male)
Oral gavage: 1% methylcellulose aqueous solution.
Six male rats were used. On the evening prior to administration, the animals were fasted, with free access to water. During the experimental period, […] had free access to food and water. The animals were administered either by intravenous injection or intragastric gavage, after which the status of the animals was observed and any abnormal manifestations were recorded. Blood was collected via jugular vein puncture at 0.0833, 0.25, 1, 2, 4, 8, and 24 hours following intravenous administration; and at 0.25, 0.5, 1, 2, 4, 6, 8, and 24 hours following intragastric gavage. […]
A standard curve was established using the internal standard method, with the theoretical concentrations of the standard curve as the abscissa and the peak area ratio (peak area of test compound / peak area of internal standard) as the ordinate. […] Unknown samples were calculated via the standard curve. Pharmacokinetic parameters were calculated using the non-compartmental analysis (NCA) model of WinNonlin 8.2 software and presented in the report. […]

[2H]C([2H])([2H])O[C@@H](C)c1ccc(CS(=O)(=O)NC(=O)c2ccc(C([2H])([2H])[2H])cc2-c2cc(Cl)ncc2OC)cc1 [cpd-17, (S)-2-(2-Chloro-5-methoxypyridin-4-yl)-N-((4-(1-(methoxy-d3)ethyl)benzyl)sulfonyl)-4-(methyl-d3)benzamide]
AUC(0-t): 11700 ng·h/mL
Cmax: 8300 ng/mL
